pKi: −log10 of the molar value.

One assay concerns the target T1, Adrenergic receptor alpha-2 (Rattus norvegicus, UniProt P22086+P19328+P22909).
T1 sequence (P22086 whole entry): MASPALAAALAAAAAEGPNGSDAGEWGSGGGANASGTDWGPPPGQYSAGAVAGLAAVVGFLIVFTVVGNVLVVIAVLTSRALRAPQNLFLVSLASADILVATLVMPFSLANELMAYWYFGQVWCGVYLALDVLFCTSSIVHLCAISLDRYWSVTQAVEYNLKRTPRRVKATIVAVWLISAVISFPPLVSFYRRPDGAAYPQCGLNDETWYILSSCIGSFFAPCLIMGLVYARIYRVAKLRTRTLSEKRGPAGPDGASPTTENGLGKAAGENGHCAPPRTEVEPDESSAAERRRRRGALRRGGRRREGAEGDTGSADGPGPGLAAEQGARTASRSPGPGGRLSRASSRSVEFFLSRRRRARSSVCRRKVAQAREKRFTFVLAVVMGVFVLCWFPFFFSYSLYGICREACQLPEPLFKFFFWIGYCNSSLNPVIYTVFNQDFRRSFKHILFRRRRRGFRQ
T1 sequence (P19328 whole entry): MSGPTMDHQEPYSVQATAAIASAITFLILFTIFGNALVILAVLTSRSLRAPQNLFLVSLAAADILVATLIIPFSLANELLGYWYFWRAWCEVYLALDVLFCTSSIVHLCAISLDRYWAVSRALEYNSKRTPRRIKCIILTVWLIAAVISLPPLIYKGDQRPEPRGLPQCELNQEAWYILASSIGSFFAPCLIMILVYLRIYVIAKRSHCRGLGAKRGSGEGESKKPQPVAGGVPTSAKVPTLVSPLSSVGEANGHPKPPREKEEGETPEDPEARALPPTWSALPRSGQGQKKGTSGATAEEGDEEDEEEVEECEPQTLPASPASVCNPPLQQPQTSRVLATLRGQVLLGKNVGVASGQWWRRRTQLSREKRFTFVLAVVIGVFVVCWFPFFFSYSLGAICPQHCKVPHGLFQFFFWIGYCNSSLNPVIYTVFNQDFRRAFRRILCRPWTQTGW
T1 sequence (P22909 whole entry): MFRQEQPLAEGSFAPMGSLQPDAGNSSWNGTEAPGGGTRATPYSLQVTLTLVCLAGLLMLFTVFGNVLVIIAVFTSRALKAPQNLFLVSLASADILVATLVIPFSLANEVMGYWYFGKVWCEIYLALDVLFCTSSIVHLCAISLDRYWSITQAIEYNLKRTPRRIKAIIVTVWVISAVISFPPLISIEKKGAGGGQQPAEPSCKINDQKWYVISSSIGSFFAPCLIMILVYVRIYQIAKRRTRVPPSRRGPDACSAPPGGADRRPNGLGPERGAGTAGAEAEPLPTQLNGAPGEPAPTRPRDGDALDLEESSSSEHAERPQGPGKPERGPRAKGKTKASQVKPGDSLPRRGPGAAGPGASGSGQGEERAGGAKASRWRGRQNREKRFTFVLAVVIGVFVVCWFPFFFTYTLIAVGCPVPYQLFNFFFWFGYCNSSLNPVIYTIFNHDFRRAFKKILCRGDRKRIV
Kind of assay: Displacement of [3H]clonidine from Sprague-Dawley rat cortex adrenergic alpha 2 receptor. Background: Loss of bound radioactivity is the signal in a displacement assay; it reports binding, not function.
By Ki is commonly meant a dissociation constant, usually derived from enzyme kinetics or from competition with a known ligand. In the case of `O=S(=O)(CCCC(F)(F)F)c1ccc2c(c1)CNC(CF)C2` (stereo not given), the Ki was over 1000 µM.
`CCS(=O)(=O)c1ccc2c(c1)CNC(CF)C2` (stereo not given) yielded a Ki of 1100 µM.
The same measure, in the same setting: next, `CCCS(=O)(=O)c1ccc2c(c1)CNC(CF)C2` (stereo not given): 690 µM; `O=S(=O)(Cc1ccc(Cl)cc1)c1ccc2c(c1)CNC(CF)C2` (stereo not given): over 1000 µM; `CCCCS(=O)(=O)c1ccc2c(c1)CNC(CF)C2` (stereo not given): 540 µM.
In turn, `COCCCS(=O)(=O)c1ccc2c(c1)CNC(CF)C2` (stereo not given) yielded a Ki of 1200 µM.
Same read-out and setting: then `O=S(=O)(CCC(F)(F)F)c1ccc2c(c1)CNC(CF)C2` (stereo not given), with over 1000 µM; and `O=S(=O)(CC(F)(F)F)c1ccc2c(c1)CNC(CF)C2` (stereo not given), with 740 µM.

Test system in a further assay: not listed separately
Kind of assay: Selectivity for human PNMT over rat Adrenergic alpha-2 receptor.
With `c1ccc2c(c1)CCNC2` [1,2,3,4-TETRAHYDROISOQUINOLINE], the Selectivity ratio turned out to be 0.06.

For a further assay, the target named is T2, Phenylethanolamine N-methyltransferase (Homo sapiens, UniProt P11086).
T2 sequence (P11086 whole entry): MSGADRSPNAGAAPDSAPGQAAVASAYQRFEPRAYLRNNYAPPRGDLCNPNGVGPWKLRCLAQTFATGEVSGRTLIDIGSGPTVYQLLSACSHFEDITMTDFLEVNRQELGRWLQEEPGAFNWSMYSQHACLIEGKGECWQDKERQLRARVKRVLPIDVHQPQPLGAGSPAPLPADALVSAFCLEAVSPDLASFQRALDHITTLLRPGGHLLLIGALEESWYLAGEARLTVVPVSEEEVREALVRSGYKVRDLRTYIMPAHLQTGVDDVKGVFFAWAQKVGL
Description: Binding affinity to human PNMT expressed in Escherichia coli by radiochemical assay.
By pKi is commonly meant −log10 of the Ki, conventionally taken in molar units. As to `c1ccc2c(c1)CCNC2` [1,2,3,4-TETRAHYDROISOQUINOLINE], the pKi is 5.24.

For the origin of these results see ChEMBL document CHEMBL1149484, “Comparison of the binding of 3-fluoromethyl-7-sulfonyl-1,2,3,4-tetrahydroisoquinolines with their isosteric sulfonamides to the active site of phenylethanolamine N-methyltransferase” (J Med Chem, 2006).
